≈ marks a conversion by molar mass, not a printed value. Entries after “also recorded” stand apart in the source; their conditions may differ. Where two headings read alike, the source gives them in different places.
Experiments:
HUVEC cells = assay: CCK-8 cell viability assay; assay type: cell-based, human; settings: 0.78125–200 μg/mL, 24 h
Protocol: 293T [HEK-293] (ATCC® CRL-1573), HUVEC (ATCC CRL-1730 ™, human umbilical vein endothelial cells) and Vero (ATCC® CCL-81™, African green monkey kidney epithelial cells) cells were used in this study. Cells were cultured in RPMI-1640 medium supplemented with 10% fetal bovine serum, 0.1 mM non-essential amino acids, […], 2 mM L-glutamine, and 10 μg/mL gentamicin in a humidified atmosphere of 5% CO2, 95% air at 37 °C. After growing to approximately 80% confluence, the cells were detached with 0.25% (w/v) trypsin-EDTA and then subcultured. The cells were stored in a deep freezer at −80 °C in a solution prepared with 95% medium and 5% DMSO.
Cell viability was assessed according to the manufacturer’s protocol using a Cell Counting Kit-8 (CCK-8) (KTA1020, Abbkine, Atlanta, GA, USA). The assay is based on the reduction of 2-(2-methoxy-4-nitrophenyl)-3-(4-nitrophenyl)-5-(2,4-disulfophenyl)-2H-tetrazolium monosodium salt (WST-8) by cellular mitochondrial dehydrogenase. Cells were seeded in 96-well plates at a final concentration of 5 × 10^3 cells/well in 100 μL complete culture medium and were allowed to attach for 24 h. […] Immediately after the treatment, cell viability in a single column was determined and recorded as time zero (T0). The plain medium with 1% FBS was used as a negative control, whereas ethanol was used as solvent control. Each treatment was performed in four well replicates. At the end of the incubation, the medium was gently aspirated to terminate the experiment, a total volume of 10 μL (5 mg/mL) of CCK-8 solution was added to each well and further incubated under the same conditions for 4 h. The absorbances at 450 nm were measured in a microplate reader (Thermo Labsystem, Waltham, MA, USA), using wells without cells as background. The sample readings were calculated by subtracting the average of background absorbances. […] Cell viability was calculated using the following formula: Cell viability (%) = (ODtreatment − ODblank)/(ODcontrol − ODblank) × 100% [78].

A. baumannii strains = settings: three A. baumannii isolates; cited from earlier work
A. baumannii isolates = settings: various A. baumannii isolates; ref 28 (Ibitoye and Ajiboye, 2019); cited from earlier work
COLR-Ab4 isolate = assay: Cytoplasmic membrane permeability assay (A260 of supernatant); assay type: cell-based, Acinetobacter baumannii; settings: 3 h
Protocol: A cell membrane permeability assay was carried out in accordance with the methods described by Köse (2023). […] The bacteria were firstly incubated in MHB at 35 ± 2 °C overnight. Subsequently, the bacterial culture was centrifuged at 4000× g at 15 min, after which the pellet was washed twice with PBS. […] A suspension containing PBS and bacteria was used as a control. All samples were incubated at 35 ± 2 °C for 3 h, centrifuged at 13,400× g for 15 min, and the supernatant was harvested. The absorbance (A)260 of the supernatant was quantified using a UV-Vis spectrophotometer (Agilent Technologies, Santa Clara, CA, USA) to determine the amount of nucleic acid released from the cytoplasm. Each experiment was repeated three times.

Vero cells = settings: cited from earlier work; for IC50 (cytotoxic effects): after 48 h, ref 70 (Sevimli-Gur and Yesil-Celiktas); for IC50: read-out: IC50 (cytotoxicity), 24 h of incubation, 5 mM maximum tested dose, ref 69 (Saenglee et al.)
[1] = system: biofilm production of A. baumannii isolates; set-up: method as in ref 51 (Mumtaz et al., 2023); settings: ref 51 (Mumtaz et al., 2023); cited from earlier work
[2] = system: biofilm formation of COLR-Ab isolates; assay: Antibiofilm activity, microtiter plate-based crystal violet technique; assay type: cell-based, Acinetobacter baumannii; settings: for Reduction of biofilm formation: dose range 512–32 μg/mL
Protocol: Following the incubation period, the microtiter plates were gently washed three times with PBS. Subsequently, 200 µL of methanol (99%) was added to each well and left for 15 min. The methanol was then removed from the wells and the plate was left to dry for approximately 30 min, thus completing the fixation process. Then, 200 µL of 0.1% CV solution was added to each well and incubated for 20 min at room temperature. The plates were washed three times with PBS in order to remove the excess stain, and then 150 μL of 95% ethanol was added to the wells and incubated for 20 min. The optical density of the CV-stained biofilm was measured at a wavelength of 575 nm using a Thermo Labsystem Multiscan Spectrum microtiter plate reader (Thermolabsystem, Chantilly, VA, USA). Each experiment was conducted in triplicate.
In order to evaluate the antibiofilm activity of COL, p-CA, FA, and p-MCA, a 96-well microtiter plate-based CV test was carried out, with minor modifications to the methods previously described by Kırmusaoglu (2019) and Haney et al. (2021). Briefly, bacteria were inoculated into MHB medium containing 0.2% glucose and incubated at 37 °C for 16–20 h. The bacterial suspension, adjusted to 0.5 McFarland using the same medium, was prepared to a final concentration of 5 × 10^5 CFU/mL and inoculated into 96-well flat-bottom microtitre plates. […] Wells containing only medium were used as negative controls (MHB), and wells containing only medium and bacteria were used as growth controls. The plates were then incubated overnight at 35 ± 2 °C in a normal atmosphere. Following incubation, CV staining procedures were carried out in a similar manner to Section 4.4.
The antibiofilm index was calculated using the following formula:% Biofilm Mass = (100 × Sample OD575/Growth Control OD575)

Streptococcus pneumoniae = system: Streptococcus pneumoniae; set-up: method as in ref 35 (Lou et al., 2012); settings: ref 35 (Lou et al., 2012); cited from earlier work
Shigella dysenteriae = settings: ref 35 (Lou et al., 2012); cited from earlier work
293T cells = settings: 24 h, tested range 0.78–200 μg/mL
Bacillus subtilis = settings: cited from earlier work
E. coli = settings: cited from earlier work
S. aureus = settings: cited from earlier work
Salmonella enteritidis = system: Salmonella enteritidis; set-up: method as in ref 29 (Nakazono et al., 2006); settings: ref 29 (Nakazono et al., 2006); cited from earlier work

Q: What does the source list for COc1cc(/C=C/C(=O)O)ccc1O [FA, ferulic acid]?
A: Cytotoxicity (doses with cytotoxic effects) (HUVEC cells): did not induce cytotoxic effects; also recorded: did not exhibit any cytotoxic effect; MIC (A. baumannii strains): 12.5 µg/mL (≈ 64.4 µM); Combination effect with quinolone-based antibiotics in words (A. baumannii isolates): synergistic effect; Increase in absorbance values at 260 nm vs control (COLR-Ab4 isolate; COLR-Ab4, MIC concentration): 1.66 fold; Increase in absorbance values at 260 nm vs control (COLR-Ab4 isolate; COLR-Ab4, MIC/2 concentration): 1.52 fold; Increase in absorbance values at 260 nm vs control (COLR-Ab4 isolate; COLR-Ab4, MIC/4 concentration): 1.14 fold; IC50 (cytotoxic effects) (Vero cells): 134 ± 0.8 µg/mL (≈ 690 µM); IC50 (Vero cells): > 5 mM; Inhibition of biofilm production [1]: 49–69%; Inhibition of biofilm formation ([2]; dose range 2048–128 μg/mL, COLR-Ab1, 3, 4, 5): 28.1–77%

Q: For O=C(O)/C=C/c1ccc(O)cc1 [p-CA, p-coumaric acid], which MIC (Streptococcus pneumoniae) is on record?
A: 10 µg/mL (≈ 60.9 µM)

Q: What about the “Cytotoxicity (doses with cytotoxic effects)” value (HUVEC cells) of the same compound?
A: cytotoxicity in HUVEC cells at concentrations of 200 μg/mL (p < 0.01), 100 μg/mL (p < 0.05), and 50 μg/mL (p < 0.05); also recorded: cytotoxic at 200 (p < 0.01), 100 (p < 0.05), and 50 (p < 0.05) μg/mL

Q: And the “Increase in absorbance values at 260 nm vs control” value (from here on “Increase in absorbance values”) (COLR-Ab4 isolate; COLR-Ab4, MIC concentration)?
A: 1.9 fold

Q: And the “Increase in absorbance values” value (COLR-Ab4 isolate; COLR-Ab4, MIC/2 concentration)?
A: 1.71 fold

Q: And the “Increase in absorbance values” value (COLR-Ab4 isolate; COLR-Ab4, MIC/4 concentration)?
A: 1.19 fold

Q: What about the “IC50 (cytotoxic effects)” value (Vero cells) of the same compound?
A: 163 ± 0.3 µg/mL (≈ 993 µM)

Q: What about the IC50 (Vero cells) of the same compound?
A: > 5 mM

Q: And the MIC (Shigella dysenteriae)?
A: 20 µg/mL (≈ 122 µM)

Q: And the IC50 value (293T cells)?
A: indeterminate

Q: What about the MIC (Bacillus subtilis; ref 35 (Lou et al., 2012)) of the same compound?
A: 20 µg/mL (≈ 122 µM)

Q: And the MIC (E. coli; ref 35 (Lou et al., 2012))?
A: 20 µg/mL (≈ 122 µM)

Q: And the “Increase in biofilm formation” value ([2]; COLR-Ab3, doses of 16–8 μg/mL)?
A: 20%

Q: What about the “Reduction of biofilm formation” value ([2]; COLR-Ab1, 3, 4, 5) of the same compound?
A: 37.3–77.5%

Q: And the MIC (S. aureus; ref 35 (Lou et al., 2012))?
A: 80 µg/mL (≈ 487 µM)

Q: With COc1ccc(C=CC(=O)O)cc1 [p-MCA, p-methoxycinnamic acid] as the compound, how does the “Cytotoxicity (doses with cytotoxic effects)” value (HUVEC cells) read?
A: cytotoxicity in these cells at concentrations of 200, 100, and 50 μg/mL; also recorded: cytotoxic effects in HUVEC cells at doses of 200, 100, and 50 μg/mL

Q: What about the “Increase in absorbance values” value (COLR-Ab4 isolate; COLR-Ab4, MIC concentration) of the same compound?
A: 1.34 fold

Q: And the “Increase in absorbance values” value (COLR-Ab4 isolate; COLR-Ab4, MIC/2 concentration)?
A: 1.15 fold

Q: What about the “Increase in absorbance values” value (COLR-Ab4 isolate; COLR-Ab4, MIC/4 concentration) of the same compound?
A: no statistically significant differences

Q: What about the MIC (Salmonella enteritidis) of the same compound?
A: 60 µg/mL (≈ 337 µM)

Q: What about the MIC (Bacillus subtilis) of the same compound?
A: 40 µg/mL (≈ 224 µM)

Q: What about the MIC (E. coli) of the same compound?
A: 30 µg/mL (≈ 168 µM)

Q: And the MIC (E. coli; ref 29 (Nakazono et al., 2006))?
A: 50 µg/mL (≈ 281 µM)

Q: What about the “Reduction of biofilm formation” value ([2]; COLR-Ab1, 3, 4, 5) of the same compound?
A: 40.3–77.2%

Q: What about the MIC (S. aureus) of the same compound?
A: 40 µg/mL (≈ 224 µM)

Q: What about the MIC (S. aureus; ref 29 (Nakazono et al., 2006)) of the same compound?
A: 60 µg/mL (≈ 337 µM)

— PMC11761228, “Cinnamic Acid Compounds (p-Coumaric, Ferulic, and p-Methoxycinnamic Acid) as Effective Antibacterial Agents Against Colistin-Resistant Acinetobacter baumannii” (Antibiotics, 2025)
